Test results: PMC5483892 (Journal of Medicinal Chemistry, 2017)

Target: ATX (full length human β form with a C-terminal 6-His tag) (Homo sapiens, UniProt Q13822)
Type: biochemical
Settings: for LE (ligand efficiency): LE = −RTpKi/nb heavy atoms; for LE (ligand efficiency) / LLE (lipophilic ligand efficiency): from concentration response pIC50; for LLE (lipophilic ligand efficiency): LLE = pIC50 – cLogP; for affinities within fold of each other: BAL hits 16, 19 and 22 compared with each other

SMILES | LE (ligand efficiency) | LLE (lipophilic ligand efficiency) | affinities within fold of each other | increase in potency (relative to phenyl boronic acid 14) | more potent than 18 (relative to 18)
OB(O)c1ccc2cc[nH]c2c1 [Compound 1] | 0.65 | 4.4 | – | – | –
O=C(O)c1ccc2cc[nH]c2c1 [Compound 2] | 0.35 | 2.8 | – | – | –
OB(O)c1ccc2nonc2c1 [Compound 3] | 0.57 | 3.8 | – | – | –
Oc1ccc2nonc2c1 [Compound 4] | 0.50 | 3.5 | – | – | –
OB(O)c1cccc(O)c1 [Compound 5] | 0.68 | 3.7 | – | – | –
NCc1cccc(O)c1 [Compound 6] | 0.44 | 2.8 | – | – | –
Nc1cccc(-c2nnc[nH]2)c1 [Compound 8] | 0.41 | 3.4 | – | – | –
OB(O)c1ccc(O)cc1 [Compound 9] | 0.68 | 3.7 | – | – | –
Oc1ccc(-n2ccnc2)cc1 [Compound 10] | 0.37 | 2.5 | – | – | –
CS(=O)(=O)c1ccc(B(O)O)cc1 [Compound 11] | 0.55 | 4.9 | – | – | –
CS(=O)(=O)c1ccc(O)cc1 [Compound 12] | 0.40 | 2.9 | – | – | –
COc1ccc(B(O)O)cc1 [Compound 13] | 0.66 | 3.6 | – | – | –
OB(O)c1ccccc1 [Compound 14, phenyl boronic acid] | 0.76 | 3.7 | – | – | –
COc1ccccc1B(O)O [Compound 15] | 0.67 | 3.8 | – | – | –
OB(O)c1ccccc1OCc1cccc(Cl)c1 [Compound 16] | 0.45 | 3.5 | ≤ 3 fold | 10 fold | –
COc1cccc(B(O)O)c1 [Compound 17] | 0.58 | 2.9 | – | – | –
OCc1cccc(B(O)O)c1 [Compound 18] | – | 3.6 | – | – | –
COCCc1ccc(OCc2cccc(B(O)O)c2)cc1 [Compound 19] | 0.41 | 3.3 | ≤ 3 fold | – | 25 fold
N#Cc1ccc(B(O)O)cc1 [Compound 21] | 0.66 | – | – | – | –
COc1cc(COc2ccc(B(O)O)cc2Cl)cc(OC)c1 [Compound 22] | 0.40 | 3.4 | ≤ 3 fold | – | –
N#Cc1cccc(B(O)O)c1 [Compound 26] | 0.58 | – | – | – | –
